From patent US20020137929A1, “1 - (3-heterocyclylphenyl) isothiourea, -isourea, -guanidine and -amidine herbicidal agents” (Intellectual Property Department, BASF Aktiengesellschaft, priority 1998, published 2002)

Experiments:
[1] = system: ZEAMX (Corn, Field); assay: Postemergence herbicidal evaluation; assay type: in vivo, Zea mays; conditions: postemergence
Procedure, shortened: (§1)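 Scores (0–9) reflect plant stand, vigor, malformation, size, chlorosis and general appearance relative to control, read 4 to 5 weeks after treatment and averaged where tests were repeated. Application: about 0.0156–0.500 kg/ha sprayed at 40 psi onto two-week seedlings.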

[2] = system: GLXMAW (Soybean, Williams); assay: Preemergence herbicidal evaluation; assay type: in vivo, Glycine max, (L.) Merr. cv Williams; conditions: rated 4-5 weeks after treatment
Procedure, shortened: (§2)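 Greenhouse preemergence test: seed-soil mix sown on ~1 inch soil; aqueous acetone spray at equivalent of ~0.0156–0.500 kg/ha; greenhouse-held and watered; scored 0–9 visually at 4–5 weeks.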

[3] = system: GALAP (Galium); assay: Postemergence herbicidal evaluation; assay type: in vivo, Galium aparine; conditions: postemergence
Procedure, shortened: as §1

[4] = system: ORYSAT (Rice, Tebonnet); assay: Preemergence herbicidal evaluation; assay type: in vivo, Oryza sativa, (L.) Tebonnet; conditions: rated 4-5 weeks after treatment
Procedure, shortened: as §2

[5] = system: CASOB (Sicklepod); assay: Postemergence herbicidal evaluation; assay type: in vivo, Cassia obtusifolia; conditions: postemergence
Procedure, shortened: as §1

[6] = system: MOOVA (Monochoria); assay: Preemergence weed control under flooded paddy conditions; assay type: in vivo, Monochoria vaginalis; conditions: rated 3-4 weeks after treatment
Procedure, shortened: (§3)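 Seeds or propagules sown in silt loam kept flooded 1.5-3 cm; compounds in 50/50 acetone/water pipetted into flood water at about 0.0313 to 0.500 kg/ha. Greenhouse; visual 0-9 rating versus untreated control 3-4 weeks after treatment.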

[7] = system: SETVI (Foxtail, Green); assay: Preemergence herbicidal evaluation; assay type: in vivo, Setaria viridis; conditions: rated 4-5 weeks after treatment
Procedure, shortened: as §2

[8] = system: CHEAL (Lambsquarters, Common); assay: Postemergence herbicidal evaluation; assay type: in vivo, Chenopodium album; conditions: postemergence
Procedure, shortened: as §1

[9] = system: ORYSAT (Rice, Tebonnet); assay: Postemergence herbicidal evaluation; assay type: in vivo, Oryza sativa, (L.) Tebonnet; conditions: postemergence
Procedure, shortened: as §1

[10] = system: AMBEL (Ragweed, Common); assay: Preemergence herbicidal evaluation; assay type: in vivo, Ambrosia artemisifolia; conditions: rated 4-5 weeks after treatment
Procedure, shortened: as §2

[11] = system: CYPSE (Flatsedge); assay: Preemergence weed control under flooded paddy conditions; assay type: in vivo, Cyperus serotinus; conditions: rated 3-4 weeks after treatment
Procedure, shortened: as §3

[12] = rate 0.0625 kg/ha, rating scale 0-9
[13] = rate 0.1250 kg/ha, rating scale 0-9
[14] = rate 0.2500 kg/ha, rating scale 0-9

With `COCCN1C(=O)CSC1=Nc1cc(-n2c(=O)cc(C(F)(F)F)n(C)c2=O)c(F)cc1Cl` [Compound 155, 3-{4-Chloro-2-fluoro-5-{[3-(2-methoxyethyl)-4-oxo-2-thiazolidinylidene]amino}phenyl}-1-methyl-6-(trifluoromethyl)-2,4(1H,3H)-pyrimidinedione] the “herbicidal rating ZEAMX” value ([1]; rate 0.0156 kg/ha) was 4.0, the “herbicidal rating ZEAMX” value ([1]; rate 0.0313 kg/ha) was 4.0 and the “herbicidal rating ZEAMX” value ([1]; rate 0.0625 kg/ha) was 4.0. For the same compound, the “Preemergence herbicidal rating GLXMAW” value [2, 12] was 0.0, the “Preemergence herbicidal rating GLXMAW” value [2, 13] was 0.0 and the “Preemergence herbicidal rating GLXMAW” value [2, 14] was 4.0. The “herbicidal rating GALAP” value ([3]; rate 0.0156 kg/ha) was 0.0, the “herbicidal rating GALAP” value ([3]; rate 0.0313 kg/ha) was 0.0 and the “herbicidal rating GALAP” value ([3]; rate 0.0625 kg/ha) was 0.0. For the same compound, the “Preemergence herbicidal rating ORYSAT” value [4, 12] was 0.0, the “Preemergence herbicidal rating ORYSAT” value [4, 13] was 0.0 and the “Preemergence herbicidal rating ORYSAT” value [4, 14] was 2.0. For the same compound, the “herbicidal rating CASOB” value ([5]; rate 0.0156 kg/ha) was 0.0, the “herbicidal rating CASOB” value ([5]; rate 0.0313 kg/ha) was 0.0 and the “herbicidal rating CASOB” value ([5]; rate 0.0625 kg/ha) was 0.0. For the same compound, the “herbicidal effect rating, MOOVA” value ([6]; 0.0313 kg/ha) was 0.0, the “herbicidal effect rating, MOOVA” value ([6]; 0.0625 kg/ha) was 0.0 and the “herbicidal effect rating, MOOVA” value ([6]; 0.1250 kg/ha) was 0.0. The “herbicidal effect rating, MOOVA” value ([6]; 0.2500 kg/ha) was 0.0, the “Preemergence herbicidal rating SETVI” value [7, 12] was 0.0 and the “Preemergence herbicidal rating SETVI” value [7, 13] was 0.0. The “Preemergence herbicidal rating SETVI” value [7, 14] was 0.0, the “herbicidal rating CHEAL” value ([8]; rate 0.0156 kg/ha) was 0.0 and the “herbicidal rating CHEAL” value ([8]; rate 0.0313 kg/ha) was 0.0. The “herbicidal rating CHEAL” value ([8]; rate 0.0625 kg/ha) was 0.0, the “herbicidal rating ORYSAT” value ([9]; rate 0.0156 kg/ha) was 0.0 and the “herbicidal rating ORYSAT” value ([9]; rate 0.0313 kg/ha) was 0.0. The “herbicidal rating ORYSAT” value ([9]; rate 0.0625 kg/ha) was 0.0, the “Preemergence herbicidal rating AMBEL” value [10, 12] was 0.0 and the “Preemergence herbicidal rating AMBEL” value [10, 13] was 2.0. The “Preemergence herbicidal rating AMBEL” value [10, 14] was 4.0, the “herbicidal effect rating, CYPSE” value ([11]; 0.0313 kg/ha) was 0.0 and the “herbicidal effect rating, CYPSE” value ([11]; 0.0625 kg/ha) was 0.0. For the same compound, the “herbicidal effect rating, CYPSE” value ([11]; 0.1250 kg/ha) was 0.0.
In the case of `COC(=O)CSCCN1C(=O)CSC1=Nc1cc(-n2c(=O)cc(C(F)(F)F)n(C)c2=O)c(F)cc1Cl` [Compound 158, Methyl {{2-{2-{{2-chloro-5-[3,6-dihydro-3-methyl-2,6-dioxo-4-(trifluoromethyl)-1(2H)-pyrimidinyl]-4-fluorophenyl}imino}-4-oxo-3-thiazolidinyl}ethyl}-thio}acetate], the “herbicidal rating ZEAMX” value ([1]; rate 0.0156 kg/ha) is reported as 4.0, the “herbicidal rating ZEAMX” value ([1]; rate 0.0313 kg/ha) is reported as 4.5 and the “herbicidal rating ZEAMX” value ([1]; rate 0.0625 kg/ha) is reported as 5.5. The “Preemergence herbicidal rating GLXMAW” value ([2]; 0.0156 kg/ha) was 1.0, the “Preemergence herbicidal rating GLXMAW” value ([2]; 0.0313 kg/ha) was 4.0 and the “Preemergence herbicidal rating GLXMAW” value ([2]; 0.0625 kg/ha) was 6.0. For the same compound, the “Preemergence herbicidal rating GLXMAW” value [2, 13] was 7.0, the “Preemergence herbicidal rating GLXMAW” value [2, 14] was 9.0 and the “herbicidal rating GALAP” value ([3]; rate 0.0156 kg/ha) was 0.0. The “herbicidal rating GALAP” value ([3]; rate 0.0313 kg/ha) was 2.0, the “herbicidal rating GALAP” value ([3]; rate 0.0625 kg/ha) was 3.0 and the “Preemergence herbicidal rating ORYSAT” value ([4]; 0.0156 kg/ha) was 3.0. The “Preemergence herbicidal rating ORYSAT” value ([4]; 0.0313 kg/ha) was 4.0, the “Preemergence herbicidal rating ORYSAT” value ([4]; 0.0625 kg/ha) was 7.0 and the “Preemergence herbicidal rating ORYSAT” value [4, 13] was 7.0. The “Preemergence herbicidal rating ORYSAT” value [4, 14] was 8.0, the “herbicidal rating CASOB” value ([5]; rate 0.0156 kg/ha) was 4.0 and the “herbicidal rating CASOB” value ([5]; rate 0.0313 kg/ha) was 4.0. The “herbicidal rating CASOB” value ([5]; rate 0.0625 kg/ha) was 9.0, the “herbicidal effect rating, MOOVA” value ([6]; 0.0313 kg/ha) was 9.0 and the “herbicidal effect rating, MOOVA” value ([6]; 0.0625 kg/ha) was 9.0. For the same compound, the “herbicidal effect rating, MOOVA” value ([6]; 0.1250 kg/ha) was 9.0, the “herbicidal effect rating, MOOVA” value ([6]; 0.2500 kg/ha) was 9.0 and the “Preemergence herbicidal rating SETVI” value ([7]; 0.0156 kg/ha) was 7.0. For the same compound, the “Preemergence herbicidal rating SETVI” value ([7]; 0.0313 kg/ha) was 9.0, the “Preemergence herbicidal rating SETVI” value ([7]; 0.0625 kg/ha) was 9.0 and the “Preemergence herbicidal rating SETVI” value [7, 13] was 9.0. The “Preemergence herbicidal rating SETVI” value [7, 14] was 9.0, the “herbicidal rating CHEAL” value ([8]; rate 0.0156 kg/ha) was 6.0 and the “herbicidal rating CHEAL” value ([8]; rate 0.0313 kg/ha) was 7.0. For the same compound, the “herbicidal rating CHEAL” value ([8]; rate 0.0625 kg/ha) was 9.0, the “herbicidal rating ORYSAT” value ([9]; rate 0.0156 kg/ha) was 2.0 and the “herbicidal rating ORYSAT” value ([9]; rate 0.0313 kg/ha) was 2.5. For the same compound, the “herbicidal rating ORYSAT” value ([9]; rate 0.0625 kg/ha) was 3.5, the “Preemergence herbicidal rating AMBEL” value ([10]; 0.0156 kg/ha) was 1.0 and the “Preemergence herbicidal rating AMBEL” value ([10]; 0.0313 kg/ha) was 3.0. For the same compound, the “Preemergence herbicidal rating AMBEL” value ([10]; 0.0625 kg/ha) was 7.0, the “Preemergence herbicidal rating AMBEL” value [10, 13] was 9.0 and the “Preemergence herbicidal rating AMBEL” value [10, 14] was 9.0. The “herbicidal effect rating, CYPSE” value ([11]; 0.0313 kg/ha) was 5.0, the “herbicidal effect rating, CYPSE” value ([11]; 0.0625 kg/ha) was 9.0 and the “herbicidal effect rating, CYPSE” value ([11]; 0.1250 kg/ha) was 9.0. For the same compound, the “herbicidal effect rating, CYPSE” value ([11]; 0.2500 kg/ha) was 9.0.
